Where only a bound is given, the exact number is not on record here.

Series [1] relates to BGC-823. The series can be described thus: Antiproliferative activity against human BGC-823 cells assessed as reduction in cell viability incubated in dark for 96 hrs by MTT assay. Format: functional, cell-based. Conditions: BGC-823, 96 h. (Tetrazolium assays rely on reduction of a dye to a coloured formazan, in cell work by metabolically active cells.)
The test system of series [2] is MGC-803. The series can be described thus: Antiproliferative activity against human MGC-803 cells assessed as reduction in cell viability incubated in dark for 96 hrs by MTT assay. Format: functional, cell-based. The following applies: MGC-803, 96 h.
Series [3] in a line: Stability in dog liver microsomes assessed as half life at 1 uM in presence of NADPH measured upto 120 min by LC-MS/MS analysis. Format: ADME, Canis lupus familiaris, Microsome. Background: Liver microsomes are a subcellular fraction often used to study metabolism.
Series [4] is described as follows: Stability in rat liver microsomes assessed as half life at 1 uM in presence of NADPH by LC-MS/MS analysis. It is filed as ADME, Microsome.
Series [5] can be described thus: Apparent permeability across apical to basolateral side in human Caco-2 cells at 10 uM incubated for 2 hrs by LC-MS/MS analysis. Format: ADME, cell-based. (Passage across Caco-2 layers is used to estimate intestinal permeability.)
Series [6] has as its system HGC-27. As to the kind of experiment: Antiproliferative activity against human HGC-27 cells assessed as reduction in cell viability incubated in dark for 96 hrs by MTT assay. It is filed as functional, cell-based. The following applies: HGC-27, 96 h.
Series [7] can be described thus: Plasma protein binding in dog at 1 uM by LC-MS/MS analysis. It is filed as ADME, cell-free, Canis lupus familiaris. The following applies: read-out: PPB (converted).
The nature of series [8]: Plasma protein binding in rat at 1 uM by LC-MS/MS analysis. The following applies: read-out: PPB (converted). Format: ADME, cell-free.
Series [9] is described as follows: Apparent permeability across basolateral to apical side in human Caco-2 cells at 10 uM incubated for 2 hrs by LC-MS/MS analysis. It is filed as ADME, cell-based.
The nature of series [10]: Stability in dog plasma assessed as half life at 1 uM measured upto 120 min by LC-MS/MS analysis. Format: ADME, cell-free, Canis lupus familiaris.
In series [11] the test system is AGS. The series can be described thus: Antiproliferative activity against human AGS cells assessed as reduction in cell viability incubated in dark for 96 hrs by MTT assay. Format: functional, cell-based.
In series [12] the test system is HCT-116. As to the kind of experiment: Antiproliferative activity against human HCT-116 cells assessed as reduction in cell viability incubated in dark for 96 hrs by MTT assay. It is filed as functional, cell-based. Conditions: HCT-116, 96 h.
Series [13] in a line: Stability in rat plasma assessed as half life at 1 uM measured upto 120 min by LC-MS/MS analysis. Format: ADME, cell-free.
A short description of series [14]: Retention time of the compound by HPLC analysis. Format: physicochemical.
For series [15], the system named is MG-63. The series can be described thus: Antiproliferative activity against human MG-63 cells assessed as reduction in cell viability incubated in dark for 96 hrs by MTT assay. The following applies: MG-63, 96 h. Format: functional, cell-based.

In general, IC50 refers to the concentration needed to halve the response being measured. For orientation: half-life means how long it takes for the measured level to halve. What is called Papp A→B is the apparent permeability from the apical to the basolateral side of a cell layer. In general, Papp B→A refers to the apparent permeability from the basolateral to the apical side of a cell layer. Consider `COc1ncc(-c2cc(OC3CCOCC3)c3ncnc(C)c3c2)cc1NS(=O)(=O)c1ccc(F)cc1F`, for which the IC50 turned out to be 18.6 nM in series [1]; 14.8 nM in [2]; 0.76 nM in series [6]; 6.3 nM in series [11]; 23.4 nM in series [12]; 5.7 nM in series [15]. Further, the half-life at 1 µM in [3] is greater than 2 h; in [4] it was 1.73 h; in series [10], greater than 2 h; in series [13], greater than 2 h. For the same molecule, in [5], the Papp A→B at 2 h, 10 µM was determined as 21.2 ×10⁻⁶ cm/s. In addition, the fraction unbound at 1 µM in series [7] and in series [8] was 0.017 throughout. Moreover, in [9], the apparent permeability from basolateral to apical (Papp B→A) at 2 h, 10 µM was 26.5 ×10⁻⁶ cm/s. Further, the Retention_time in [14] amounted to 5.2 min.

For the origin of these results see ChEMBL document CHEMBL5042472, “Design, Synthesis, and Biological Evaluation of a Novel Photocaged PI3K Inhibitor toward Precise Cancer Treatment” (J Med Chem, 2021).
